Kd data for 1 substance are collected here from patent US7514567B2 (priority 2003, dated 2009).

The test addresses α7 nAChR Subtype (Rattus norvegicus, UniProt Q05941). It counts as binding. The following applies: read-out: KD of radioligand from saturation curves.

Sequence of α7 nAChR Subtype (Q05941 23-502 limits assumed): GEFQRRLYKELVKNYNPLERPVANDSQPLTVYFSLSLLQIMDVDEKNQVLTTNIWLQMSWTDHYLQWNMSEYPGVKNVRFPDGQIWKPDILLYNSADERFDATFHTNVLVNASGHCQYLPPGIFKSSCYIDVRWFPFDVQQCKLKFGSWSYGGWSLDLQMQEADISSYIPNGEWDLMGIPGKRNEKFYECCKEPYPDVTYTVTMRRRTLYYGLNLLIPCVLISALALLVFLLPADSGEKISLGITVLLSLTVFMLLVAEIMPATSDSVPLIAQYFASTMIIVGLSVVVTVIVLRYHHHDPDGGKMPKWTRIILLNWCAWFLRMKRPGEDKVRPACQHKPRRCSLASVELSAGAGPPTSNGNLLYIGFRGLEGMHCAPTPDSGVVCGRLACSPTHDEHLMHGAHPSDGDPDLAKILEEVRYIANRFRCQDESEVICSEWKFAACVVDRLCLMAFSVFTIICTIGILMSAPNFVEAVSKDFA

As for [^125I]-α-Bungarotoxin [[^125I]-α-BTX], the Kd was determined as 1.67 nM.
